# Measured values as given in US10004701B2, “Methods and compositions for treating infection” (UNIVERSITY OF ROCHESTER, priority 2012, dated 2018).
# Structures can show the parent of a compound that is named as a salt. Where two headings read alike, the source gives them in different places.
# Legend:
# Assay in all cases: AK assay 384-well format, Prestwick library screening
# E. faecium = format: cell-based, Enterococcus faecium; conditions: 50 μM final drug concentration; for fold induction at 50 µM: Enterococcus faecium, 3 h
# [1] = system: S. aureus strain USA300-0114; format: cell-based, Staphylococcus aureus; conditions: 50 μM final drug concentration; for fold induction at 50 µM: Staphylococcus aureus, USA300, 3 h
# K. pneumoniae = format: cell-based, Klebsiella pneumoniae; conditions: 50 μM final drug concentration; for fold induction at 50 µM: Klebsiella pneumoniae, 3 h
# [2] = system: A. baumannii strain 98-37-09; format: cell-based, Acinetobacter baumannii; conditions: 50 μM final drug concentration; for fold induction at 50 µM: Acinetobacter baumannii, 983709, 3 h
# P. aeruginosa = format: cell-based, Pseudomonas aeruginosa; conditions: 50 μM final drug concentration; for fold induction at 50 µM: Pseudomonas aeruginosa, 3 h
# E. cloacae = format: cell-based, Enterobacter cloacae; conditions: 50 μM final drug concentration; for fold induction at 50 µM: Enterobacter cloacae, 3 h
# E. coli = format: cell-based, Escherichia coli; conditions: 50 μM final drug concentration; for fold induction at 50 µM: Escherichia coli, 3 h
# [3] = 384-well format, cutoff for positive-scoring molecules 3-fold increase
# [4] = 384-well format, cutoff for positive-scoring molecules 3-fold increase, read-out: AK-based Prestwick Library Screening Results, E. faecium (increase in extracellular AK activity)
# [5] = 384-well format, cutoff for positive-scoring molecules 3-fold increase, read-out: AK-based Prestwick Library Screening Results, S. aureus (increase in extracellular AK activity)
# [6] = 384-well format, cutoff for positive-scoring molecules 3-fold increase, read-out: AK-based Prestwick Library Screening Results, K. pneumoniae (increase in extracellular AK activity)
# [7] = 384-well format, cutoff for positive-scoring molecules 3-fold increase, read-out: AK-based Prestwick Library Screening Results, A. baumannii (increase in extracellular AK activity)
# [8] = 384-well format, cutoff for positive-scoring molecules 3-fold increase, read-out: AK-based Prestwick Library Screening Results, P. aeruginosa (increase in extracellular AK activity)
# [9] = 384-well format, cutoff for positive-scoring molecules 3-fold increase, read-out: AK-based Prestwick Library Screening Results, E. cloacae (increase in extracellular AK activity)
# [10] = 384-well format, cutoff for positive-scoring molecules 3-fold increase, read-out: AK-based Prestwick Library Screening Results, E. coli (increase in extracellular AK activity)
structure (smiles),measurement,setting,value
CCC1(c2cccc(O)c2)CCCCN(C)C1 (stereo not drawn) [Meptazinol hydrochloride],fold induction at 50 µM,"E. faecium; planktonic E. faecium, […], read-out: AK-based Prestwick library screening result, E. faecium (fold increase in extracellular AK activity)",1.1
same,fold induction at 50 µM,"[1]; planktonic S. aureus, […], read-out: AK-based Prestwick library screening result, S. aureus (fold increase in extracellular AK activity)",0.9
same,fold induction at 50 µM,"K. pneumoniae; planktonic K. pneumoniae, […], read-out: AK-based Prestwick library screening result, K. pneumoniae (fold increase in extracellular AK activity)",0.9
same,fold induction at 50 µM,"[2]; planktonic A. baumannii, […], read-out: AK-based Prestwick library screening result, A. baumannii (fold increase in extracellular AK activity)",1.1
same,fold induction at 50 µM,"P. aeruginosa; planktonic P. aeruginosa, […], read-out: AK-based Prestwick library screening result, P. aeruginosa (fold increase in extracellular AK activity)",1.1
same,fold induction at 50 µM,"E. cloacae; planktonic E. cloacae, […], read-out: AK-based Prestwick library screening result, E. cloacae (fold increase in extracellular AK activity)",1.4
same,fold induction at 50 µM,"E. coli; planktonic E. coli, […], read-out: AK-based Prestwick library screening result, E. coli (fold increase in extracellular AK activity)",1.3
O=C([O-])c1ccccc1-c1c2cc(Br)c(=O)cc-2oc2[c]([Hg+])c([O-])c(Br)cc12.[Na+].[Na+].[OH-] [Merbromin],"AK-based Prestwick Library Screening Results, E. faecium (fold increase in extracellular AK activity)",E. faecium; […],0.6
same,"AK-based Prestwick Library Screening Results, S. aureus (fold increase in extracellular AK activity)",[1]; […],0.2
same,"AK-based Prestwick Library Screening Results, K. pneumoniae (fold increase in extracellular AK activity)",K. pneumoniae; […],0.4
same,"AK-based Prestwick Library Screening Results, A. baumannii (fold increase in extracellular AK activity)",[2]; […],0.7
same,"AK-based Prestwick Library Screening Results, P. aeruginosa (fold increase in extracellular AK activity)",P. aeruginosa; […],0.4
same,"AK-based Prestwick Library Screening Results, E. cloacae (fold increase in extracellular AK activity)",E. cloacae; […],1.4
same,"AK-based Prestwick Library Screening Results, E. coli (fold increase in extracellular AK activity)",E. coli; […],0.5
Nc1ccc(O)c(C(=O)O)c1 [Mesalamine],fold induction at 50 µM,"E. faecium; planktonic E. faecium, positive cutoff 3-fold increase, read-out: AK-based Prestwick library screening result, E. faecium (fold increase in extracellular AK activity)",0.9
same,fold induction at 50 µM,"[1]; planktonic S. aureus, positive cutoff 3-fold increase, read-out: AK-based Prestwick library screening result, S. aureus (fold increase in extracellular AK activity)",0.7
same,fold induction at 50 µM,"K. pneumoniae; planktonic K. pneumoniae, positive cutoff 3-fold increase, read-out: AK-based Prestwick library screening result, K. pneumoniae (fold increase in extracellular AK activity)",0.7
same,fold induction at 50 µM,"[2]; planktonic A. baumannii, positive cutoff 3-fold increase, read-out: AK-based Prestwick library screening result, A. baumannii (fold increase in extracellular AK activity)",0.9
same,fold induction at 50 µM,"P. aeruginosa; planktonic P. aeruginosa, positive cutoff 3-fold increase, read-out: AK-based Prestwick library screening result, P. aeruginosa (fold increase in extracellular AK activity)",0.9
same,fold induction at 50 µM,"E. cloacae; planktonic E. cloacae, positive cutoff 3-fold increase, read-out: AK-based Prestwick library screening result, E. cloacae (fold increase in extracellular AK activity)",1
same,fold induction at 50 µM,"E. coli; planktonic E. coli, positive cutoff 3-fold increase, read-out: AK-based Prestwick library screening result, E. coli (fold increase in extracellular AK activity)",0.9
CN1CCCCC1CCN1c2ccccc2Sc2ccc([S+](C)[O-])cc21 (stereo not drawn) [Mesoridazine besylate],fold induction at 50 µM,"E. faecium; planktonic, cutoff for positive 3-fold increase, read-out: AK-based Prestwick Library Screening Results, E. faecium (fold increase in extracellular AK activity)",1.1
same,fold induction at 50 µM,"[1]; planktonic, cutoff for positive 3-fold increase, read-out: AK-based Prestwick Library Screening Results, S. aureus (fold increase in extracellular AK activity)",1.3
same,fold induction at 50 µM,"K. pneumoniae; planktonic, cutoff for positive 3-fold increase, read-out: AK-based Prestwick Library Screening Results, K. pneumoniae (fold increase in extracellular AK activity)",1
same,fold induction at 50 µM,"[2]; planktonic, cutoff for positive 3-fold increase, read-out: AK-based Prestwick Library Screening Results, A. baumannii (fold increase in extracellular AK activity)",1
same,fold induction at 50 µM,"P. aeruginosa; planktonic, cutoff for positive 3-fold increase, read-out: AK-based Prestwick Library Screening Results, P. aeruginosa (fold increase in extracellular AK activity)",1.2
same,fold induction at 50 µM,"E. cloacae; planktonic, cutoff for positive 3-fold increase, read-out: AK-based Prestwick Library Screening Results, E. cloacae (fold increase in extracellular AK activity)",1.3
same,fold induction at 50 µM,"E. coli; planktonic, cutoff for positive 3-fold increase, read-out: AK-based Prestwick Library Screening Results, E. coli (fold increase in extracellular AK activity)",1.1
C=N[C@@H](C(=O)N[C@@H]1C(=O)N2[C@@H]1SC(C)(C)[C@@H]2C(=O)O)c1ccccc1 [Metampicillin sodium salt],fold induction at 50 µM,"E. faecium; planktonic E. faecium, 384-well, cutoff for positive-scoring molecules 3-fold increase, read-out: AK-based Prestwick Library Screening Results: E. faecium (increase in extracellular AK activity)",1.6
same,fold induction at 50 µM,"[1]; planktonic S. aureus, 384-well, cutoff for positive-scoring molecules 3-fold increase, read-out: AK-based Prestwick Library Screening Results: S. aureus (increase in extracellular AK activity)",1.3
same,fold induction at 50 µM,"K. pneumoniae; planktonic K. pneumoniae, 384-well, cutoff for positive-scoring molecules 3-fold increase, read-out: AK-based Prestwick Library Screening Results: K. pneumoniae (increase in extracellular AK activity)",1
same,fold induction at 50 µM,"[2]; planktonic A. baumannii, 384-well, cutoff for positive-scoring molecules 3-fold increase, read-out: AK-based Prestwick Library Screening Results: A. baumannii (increase in extracellular AK activity)",1.1
same,fold induction at 50 µM,"P. aeruginosa; planktonic P. aeruginosa, 384-well, cutoff for positive-scoring molecules 3-fold increase, read-out: AK-based Prestwick Library Screening Results: P. aeruginosa (increase in extracellular AK activity)",1.3
same,fold induction at 50 µM,"E. cloacae; planktonic E. cloacae, 384-well, cutoff for positive-scoring molecules 3-fold increase, read-out: AK-based Prestwick Library Screening Results: E. cloacae (increase in extracellular AK activity)",4.3
same,fold induction at 50 µM,"E. coli; planktonic E. coli, 384-well, cutoff for positive-scoring molecules 3-fold increase, read-out: AK-based Prestwick Library Screening Results: E. coli (increase in extracellular AK activity)",16.8
CNCC(O)c1ccc(O)c(OC)c1.Cl (stereo not drawn) [Metanephrine hydrochloride DL],"AK-based Prestwick Library Screening Results, E. faecium (increase in extracellular AK activity)",E. faecium; [3],1.0
same,"AK-based Prestwick Library Screening Results, S. aureus (increase in extracellular AK activity)",[1]; [3],1.2
same,"AK-based Prestwick Library Screening Results, K. pneumoniae (increase in extracellular AK activity)",K. pneumoniae; [3],1.0
same,"AK-based Prestwick Library Screening Results, A. baumannii (increase in extracellular AK activity)",[2]; [3],1.1
same,"AK-based Prestwick Library Screening Results, P. aeruginosa (increase in extracellular AK activity)",P. aeruginosa; [3],1.1
same,"AK-based Prestwick Library Screening Results, E. cloacae (increase in extracellular AK activity)",E. cloacae; [3],1.3
same,"AK-based Prestwick Library Screening Results, E. coli (increase in extracellular AK activity)",E. coli; [3],1.3
C[C@H](N)[C@H](O)c1cccc(O)c1 [Metaraminol bitartrate],fold induction at 50 µM,E. faecium; [4],1
same,fold induction at 50 µM,[1]; [5],0.7
same,fold induction at 50 µM,K. pneumoniae; [6],0.8
same,fold induction at 50 µM,[2]; [7],0.9
same,fold induction at 50 µM,P. aeruginosa; [8],0.8
same,fold induction at 50 µM,E. cloacae; [9],1.3
same,fold induction at 50 µM,E. coli; [10],1
CN1C[C@H](CNC(=O)OCc2ccccc2)C[C@@H]2c3cccc4c3c(cn4C)C[C@H]21 [Metergoline],fold induction at 50 µM,"E. faecium; planktonic E. faecium, cutoff for positive-scoring molecules 3-fold increase, read-out: AK-based Prestwick Library Screening Results, E. faecium (increase in extracellular AK activity)",1
same,fold induction at 50 µM,"[1]; planktonic S. aureus, cutoff for positive-scoring molecules 3-fold increase, read-out: AK-based Prestwick Library Screening Results, S. aureus (increase in extracellular AK activity)",1.1
same,fold induction at 50 µM,"K. pneumoniae; planktonic K. pneumoniae, cutoff for positive-scoring molecules 3-fold increase, read-out: AK-based Prestwick Library Screening Results, K. pneumoniae (increase in extracellular AK activity)",1
same,fold induction at 50 µM,"[2]; planktonic A. baumannii, cutoff for positive-scoring molecules 3-fold increase, read-out: AK-based Prestwick Library Screening Results, A. baumannii (increase in extracellular AK activity)",1.3
same,fold induction at 50 µM,"P. aeruginosa; planktonic P. aeruginosa, cutoff for positive-scoring molecules 3-fold increase, read-out: AK-based Prestwick Library Screening Results, P. aeruginosa (increase in extracellular AK activity)",1.1
same,fold induction at 50 µM,"E. cloacae; planktonic E. cloacae, cutoff for positive-scoring molecules 3-fold increase, read-out: AK-based Prestwick Library Screening Results, E. cloacae (increase in extracellular AK activity)",1.3
same,fold induction at 50 µM,"E. coli; planktonic E. coli, cutoff for positive-scoring molecules 3-fold increase, read-out: AK-based Prestwick Library Screening Results, E. coli (increase in extracellular AK activity)",1.2
CN(C)C(=N)N=C(N)N [Metformin hydrochloride],fold induction at 50 µM,E. faecium; [4],0.8
same,fold induction at 50 µM,[1]; [5],0.4
same,fold induction at 50 µM,K. pneumoniae; [6],0.4
same,fold induction at 50 µM,[2]; [7],0.4
same,fold induction at 50 µM,P. aeruginosa; [8],0.3
same,fold induction at 50 µM,E. cloacae; [9],0.3
same,fold induction at 50 µM,E. coli; [10],0.5
